Earlier results, collected in US10638990B2, “Sunscreen compositions with improved water resistance of UVA sunscreen active agents” (Edgewell Personal Care Brands, LLC, priority 2015, dated 2020).

Settings: calculated partition coefficient between octanol and water
In the case of CCOCCOC(=O)/C=C/c1ccc(OC)cc1 [Cinoxate, Ethoxyethyl methoxy cinnamate], the “Log P @25° C.” value is given as 2.55. In the case of CCOC(=O)c1ccc(N(CC(C)O)CC(C)O)cc1 (stereo not drawn) [Ethyl dihydroxypropyl PABA, Ethyl-4-bis(2-hydroxypropyl-aminobenzoate)], the “Log P @25° C.” value is given as 2.84. For CC1CCC(C(C)C)C(OC(=O)c2ccccc2N)C1 (stereo not drawn) [Menthyl anthranilate, Menthyl-O-aminobenzoate], the “Log P @25° C.” value is listed as 5.05.
